Peptide text beside a SMILES is read from it.
Assays:
Format in all cases: biochemical
HDAC8 = target: T1, HDAC8 (Homo sapiens, UniProt Q9BY41); experiment: HDAC8 inhibition, full IC50 measurement (Reaction Biology; fluorogenic p53 peptide RHKK(Ac)AMC); conditions: t1/t2 replicates
T1 construct: purchased Reaction Biology Corporation (assay run by the CRO)
T1 sequence (Q9BY41 1-377): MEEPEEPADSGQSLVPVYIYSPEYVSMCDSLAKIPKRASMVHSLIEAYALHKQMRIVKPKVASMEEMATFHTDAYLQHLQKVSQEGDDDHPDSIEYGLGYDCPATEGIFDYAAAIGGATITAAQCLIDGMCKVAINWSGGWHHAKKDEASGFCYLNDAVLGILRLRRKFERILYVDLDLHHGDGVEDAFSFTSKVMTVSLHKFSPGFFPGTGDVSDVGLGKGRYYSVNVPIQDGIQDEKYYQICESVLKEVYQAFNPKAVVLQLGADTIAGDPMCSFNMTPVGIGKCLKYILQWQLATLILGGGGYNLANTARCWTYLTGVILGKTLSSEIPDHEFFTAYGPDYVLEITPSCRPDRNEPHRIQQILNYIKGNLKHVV
How it was run: (§1)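 Test peptides were dispensed acoustically with enzyme in 50 mM Tris-HCl pH 8.0, 137 mM NaCl, 2.7 mM KCl, 1 mM MgCl2, 1 mg/ml BSA and 1% DMSO. After adding 50 μM RHKK(Ac)AMC, reactions ran 1 h at 30 °C, then developer was added.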

HDAC3 = target: T2, HDAC3 (Homo sapiens, UniProt O15379); experiment: HDAC3 inhibition, full IC50 measurement (Reaction Biology; fluorogenic p53 peptide RHKK(Ac)AMC)
T2 construct: purchased Reaction Biology Corporation (assay run by the CRO)
How it was run: as §1

HDAC6 = target: T3, HDAC6 (Homo sapiens, UniProt Q9UBN7); experiment: HDAC6 inhibition, full IC50 measurement (Reaction Biology; fluorogenic p53 peptide RHKK(Ac)AMC)
T3 construct: purchased Reaction Biology Corporation (assay run by the CRO)
T3 sequence (Q9UBN7 1-1215): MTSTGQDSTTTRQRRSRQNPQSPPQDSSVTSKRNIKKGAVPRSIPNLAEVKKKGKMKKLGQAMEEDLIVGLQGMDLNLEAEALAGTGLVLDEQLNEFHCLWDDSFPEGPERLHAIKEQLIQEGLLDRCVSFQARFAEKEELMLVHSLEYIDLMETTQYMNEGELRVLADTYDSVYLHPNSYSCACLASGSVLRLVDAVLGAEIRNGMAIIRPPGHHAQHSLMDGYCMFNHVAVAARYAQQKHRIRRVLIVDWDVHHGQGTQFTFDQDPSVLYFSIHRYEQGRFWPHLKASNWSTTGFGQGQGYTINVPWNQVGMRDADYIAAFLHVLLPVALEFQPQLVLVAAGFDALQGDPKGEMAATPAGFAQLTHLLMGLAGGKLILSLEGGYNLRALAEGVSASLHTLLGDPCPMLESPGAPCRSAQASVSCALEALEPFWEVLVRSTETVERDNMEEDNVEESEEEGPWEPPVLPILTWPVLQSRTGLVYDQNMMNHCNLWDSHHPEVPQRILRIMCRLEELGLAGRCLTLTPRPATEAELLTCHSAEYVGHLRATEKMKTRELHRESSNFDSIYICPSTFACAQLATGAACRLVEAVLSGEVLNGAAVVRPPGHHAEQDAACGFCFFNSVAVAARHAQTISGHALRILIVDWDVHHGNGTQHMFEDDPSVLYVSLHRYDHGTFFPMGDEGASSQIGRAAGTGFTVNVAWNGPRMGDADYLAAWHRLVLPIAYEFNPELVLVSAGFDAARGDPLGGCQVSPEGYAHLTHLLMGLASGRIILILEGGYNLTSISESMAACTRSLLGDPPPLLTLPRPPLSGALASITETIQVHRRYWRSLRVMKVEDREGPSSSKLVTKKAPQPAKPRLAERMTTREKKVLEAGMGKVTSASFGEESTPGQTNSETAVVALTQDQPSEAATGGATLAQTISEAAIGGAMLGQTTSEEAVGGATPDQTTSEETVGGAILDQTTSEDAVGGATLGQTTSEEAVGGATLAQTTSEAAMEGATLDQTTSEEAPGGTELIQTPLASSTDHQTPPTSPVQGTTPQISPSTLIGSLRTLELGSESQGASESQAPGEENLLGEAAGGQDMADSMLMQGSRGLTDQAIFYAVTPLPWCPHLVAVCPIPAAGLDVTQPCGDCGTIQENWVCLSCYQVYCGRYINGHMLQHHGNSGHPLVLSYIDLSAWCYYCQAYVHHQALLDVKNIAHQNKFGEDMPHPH
How it was run: as §1

T2 sequence (O15379 whole entry): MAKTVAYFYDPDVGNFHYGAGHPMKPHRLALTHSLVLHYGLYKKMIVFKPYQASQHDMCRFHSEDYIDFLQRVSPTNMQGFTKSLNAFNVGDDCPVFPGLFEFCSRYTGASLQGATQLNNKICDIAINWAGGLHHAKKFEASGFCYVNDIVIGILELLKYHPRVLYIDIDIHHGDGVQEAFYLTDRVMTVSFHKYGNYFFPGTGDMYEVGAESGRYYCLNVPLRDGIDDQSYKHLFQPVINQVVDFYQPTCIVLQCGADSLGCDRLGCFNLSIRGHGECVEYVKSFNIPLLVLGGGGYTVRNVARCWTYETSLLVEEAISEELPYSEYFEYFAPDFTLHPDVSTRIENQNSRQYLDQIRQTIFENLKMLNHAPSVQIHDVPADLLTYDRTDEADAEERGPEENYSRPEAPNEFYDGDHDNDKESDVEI
T2 sequence (Q9Y618 395-489 partner limits assumed): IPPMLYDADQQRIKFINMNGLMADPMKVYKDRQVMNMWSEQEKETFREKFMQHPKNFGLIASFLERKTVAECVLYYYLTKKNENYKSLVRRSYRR

## NCCCC[C@@H]1NC(=O)[C@@H]2CCCN2C(=O)[C@H](CC(N)=O)NC(=O)[C@H](CCCCCS)NC(=O)CNC(=O)[C@H](Cc2c[nH]c3ccccc23)NC(=O)[C@@H](CCCCN)NC(=O)[C@H](CCC(N)=O)NC1=O [des1.1.0, SHA-Asn-Pro-Lys-Gln-dLys-Trp-Gly] (HELM PEPTIDE1{G.[O=C([C@H](CCCCCS)N[*:1])[*:2]].N.P.K.Q.[dK].W}$PEPTIDE1,PEPTIDE1,1:R1-8:R2$$$V2.0)
HDAC8; peptide conc. 1.00E-05 M, listed as des1.1.0_t1
  HDAC8 activity raw data (signal): 10236983
HDAC8; peptide conc. 1.00E-05 M, listed as des1.1.0_t2
  HDAC8 activity raw data (signal): 10257985
HDAC8; peptide conc. 1.11E-06 M, listed as des1.1.0_t1
  HDAC8 activity raw data (signal): 29747792
HDAC8; peptide conc. 1.11E-06 M, listed as des1.1.0_t2
  HDAC8 activity raw data (signal): 28102681
HDAC8; peptide conc. 1.23E-07 M, listed as des1.1.0_t1
  HDAC8 activity raw data (signal): 42994609
HDAC8; peptide conc. 1.23E-07 M, listed as des1.1.0_t2
  HDAC8 activity raw data (signal): 40726222
HDAC8; peptide conc. 1.37E-08 M, listed as des1.1.0_t1
  HDAC8 activity raw data (signal): 47328720
HDAC8; peptide conc. 1.52E-09 M, listed as des1.1.0_t1
  HDAC8 activity raw data (signal): 53395040
HDAC8; peptide conc. 1.52E-09 M, listed as des1.1.0_t2
  HDAC8 activity raw data (signal): 46072556
HDAC8; peptide conc. 3.33E-06 M, listed as des1.1.0_t1
  HDAC8 activity raw data (signal): 22600954
HDAC8; peptide conc. 3.33E-06 M, listed as des1.1.0_t2
  HDAC8 activity raw data (signal): 20891410
HDAC8; peptide conc. 3.70E-07 M, listed as des1.1.0_t1
  HDAC8 activity raw data (signal): 39809686
HDAC8; peptide conc. 3.70E-07 M, listed as des1.1.0_t2
  HDAC8 activity raw data (signal): 39972357
HDAC8; peptide conc. 4.12E-08 M, listed as des1.1.0_t1
  HDAC8 activity raw data (signal): 43706367
HDAC8; peptide conc. 4.12E-08 M, listed as des1.1.0_t2
  HDAC8 activity raw data (signal): 45310513
HDAC8; peptide conc. 4.57E-09 M, listed as des1.1.0_t1
  HDAC8 activity raw data (signal): 46840747
HDAC8; peptide conc. 4.57E-09 M, listed as des1.1.0_t2
  HDAC8 activity raw data (signal): 46072556
HDAC8; peptide conc. 5.08E-10 M, listed as des1.1.0_t1
  HDAC8 activity raw data (signal): 54262535
HDAC8; peptide conc. 5.08E-10 M, listed as des1.1.0_t2
  HDAC8 activity raw data (signal): 46072556
HDAC3; Conc. 1.00E-05 M, t1
  HDAC3 activity raw data (signal): 5471
HDAC3; Conc. 1.00E-05 M, t2
  HDAC3 activity raw data (signal): 9474
HDAC3; Conc. 1.11E-06 M, t1
  HDAC3 activity raw data (signal): 58802
HDAC3; Conc. 1.11E-06 M, t2
  HDAC3 activity raw data (signal): 66090
HDAC3; Conc. 1.23E-07 M, t1
  HDAC3 activity raw data (signal): 406610
HDAC3; Conc. 1.23E-07 M, t2
  HDAC3 activity raw data (signal): 410292
HDAC3; Conc. 1.37E-08 M, t1
  HDAC3 activity raw data (signal): 1181819
HDAC3; Conc. 1.37E-08 M, t2
  HDAC3 activity raw data (signal): 1197870
HDAC3; Conc. 1.52E-09 M, t1
  HDAC3 activity raw data (signal): 1432990
HDAC3; Conc. 1.52E-09 M, t2
  HDAC3 activity raw data (signal): 1448071
HDAC3; Conc. 3.33E-06 M, t1
  HDAC3 activity raw data (signal): 23719
HDAC3; Conc. 3.33E-06 M, t2
  HDAC3 activity raw data (signal): 26034
HDAC3; Conc. 3.70E-07 M, t1
  HDAC3 activity raw data (signal): 182063
HDAC3; Conc. 3.70E-07 M, t2
  HDAC3 activity raw data (signal): 201749
HDAC3; Conc. 4.12E-08 M, t1
  HDAC3 activity raw data (signal): 761011
HDAC3; Conc. 4.12E-08 M, t2
  HDAC3 activity raw data (signal): 799167
HDAC3; Conc. 4.57E-09 M, t1
  HDAC3 activity raw data (signal): 1249527
HDAC3; Conc. 4.57E-09 M, t2
  HDAC3 activity raw data (signal): 1277477
HDAC3; Conc. 5.08E-10 M, t1
  HDAC3 activity raw data (signal): 1537856
HDAC3; Conc. 5.08E-10 M, t2
  HDAC3 activity raw data (signal): 1472354
HDAC6; Conc. 1.00E-05 M, t1
  HDAC6 activity raw data (signal): 8262
HDAC6; Conc. 1.00E-05 M, t2
  HDAC6 activity raw data (signal): -132
HDAC6; Conc. 1.11E-06 M, t1
  HDAC6 activity raw data (signal): 22357
HDAC6; Conc. 1.11E-06 M, t2
  HDAC6 activity raw data (signal): 16681
HDAC6; Conc. 1.23E-07 M, t1
  HDAC6 activity raw data (signal): 128420
HDAC6; Conc. 1.23E-07 M, t2
  HDAC6 activity raw data (signal): 107875
HDAC6; Conc. 1.37E-08 M, t1
  HDAC6 activity raw data (signal): 427941
HDAC6; Conc. 1.37E-08 M, t2
  HDAC6 activity raw data (signal): 374868
HDAC6; Conc. 1.52E-09 M, t1
  HDAC6 activity raw data (signal): 599157
HDAC6; Conc. 1.52E-09 M, t2
  HDAC6 activity raw data (signal): 570644
HDAC6; Conc. 3.33E-06 M, t1
  HDAC6 activity raw data (signal): 12160
HDAC6; Conc. 3.33E-06 M, t2
  HDAC6 activity raw data (signal): 5788
HDAC6; Conc. 3.70E-07 M, t1
  HDAC6 activity raw data (signal): 52219
HDAC6; Conc. 3.70E-07 M, t2
  HDAC6 activity raw data (signal): 39167
HDAC6; Conc. 4.12E-08 M, t1
  HDAC6 activity raw data (signal): 251632
HDAC6; Conc. 4.12E-08 M, t2
  HDAC6 activity raw data (signal): 228170
HDAC6; Conc. 4.57E-09 M, t1
  HDAC6 activity raw data (signal): 511649
HDAC6; Conc. 4.57E-09 M, t2
  HDAC6 activity raw data (signal): 482006
HDAC6; Conc. 5.08E-10 M, t1
  HDAC6 activity raw data (signal): 622162
HDAC6; Conc. 5.08E-10 M, t2
  HDAC6 activity raw data (signal): 563120
HDAC6; unit printed only in the axis title, read-out: HDAC6 IC50 (printed in dose-response picture)
  IC50: 0.025 µM
